We go through six compounds from the supplement of paper PMC11061612.

Assay in all cases: Bliss excess, mean over the matrix (fraction); higher = more synergy
Assay [1] deals with OPM-2 (Plasma Cell Myeloma). The gist of the method: (§1)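 Cell lines grown in DMEM/F12 or RPMI with 10% FBS were plated in 1536-well plates and held 24 hours at 37°C, 5% CO2 before 72 hours of exposure to two-drug dose matrices, with DMSO typically at 0.2%. CellTiter-Glo 2.0 luminescence gave viability, which was converted to inhibition. Vehicle wells were set to 0 and blank wells to 1. Combination Emax is the second-highest inhibition in the matrix, and Bliss excess is the observed combination effect minus the expected EA + EB − EA·EB, where EA and EB are the single-agent effects.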

In assay [2] the test system is L-1236 (Hodgkin's Lymphoma). The method in brief: as §1
Assay [3] relates to VAL (B-Cell Non-Hodgkin's Lymphoma). The method in brief:
as §1

In assay [4] the test system is OVMIU (Ovarian Carcinoma). The method in brief: as §1
Assay [5] relates to PSN1 (Pancreatic Carcinoma). The gist of the method:
as §1

In assay [6] the test system is SF268 (Low Grade Glioma). The gist of the method: as §1
Assay [7] deals with RERF-GC-1B (Gastric Carcinoma). The method in brief:
as §1

Assay [8] deals with OAW-42 (Ovarian Carcinoma). The gist of the method: as §1
Assay [9] has as its system FADU (Head and Neck Carcinoma). The gist of the method:
as §1

The test system of assay [10] is SK-PN-DW (Other Solid Carcinomas). The gist of the method:
as §1

Assay [11] has as its system LN-229 (Glioblastoma). The method in brief: as §1
The test system of assay [12] is GB-1 (Glioblastoma). The method in brief:
as §1

The test system of assay [13] is TE-8 (Esophageal Squamous Cell Carcinoma). The method in brief:
as §1

Assay [14] has as its system MFE-280 (Endometrial Carcinoma). The method in brief: as §1
Assay [15] has as its system NCI-H446 (Small Cell Lung Carcinoma). The method in brief:
as §1

For assay [16], the system named is LB996-RCC (Kidney Carcinoma). The gist of the method: as §1
Assay [17] deals with WM278 (Melanoma). The method in brief:
as §1

Assay [18] has as its system COLO-680N (Esophageal Squamous Cell Carcinoma). The gist of the method: as §1
For assay [19], the system named is LK-2 (Squamous Cell Lung Carcinoma). The gist of the method:
as §1

In assay [20] the test system is SHP-77 (Small Cell Lung Carcinoma). The gist of the method:
as §1

Take `C[C@@H](c1ccc2nccn2c1)n1nnc2ncc(-c3cnn(C)c3)nc21` [Savolitinib] + Cc1c2c(nn1C)CSCc1cc(n(C)n1)CSc1cc(c3ccccc3c1)OCCCc1c(C(=O)O)n(C)c3c-2c(Cl)ccc13 [AZD5991] (first compound max 1 µM, 7x7, partner max 1 µM): the Bliss excess in [1] was -0.0413; in assay [2], -0.0017; in assay [3], -0.0491; in assay [4], -0.0415; in assay [5] it was -0.0182; in [6], -0.0595. For the same compound, the Bliss excess in assay [7] is -0.0141; in assay [8], -0.0474; in assay [9], -0.0687; in assay [10], -0.0656; in assay [11], -0.0372; in [12], -0.0495. Moreover, the Bliss excess in assay [13] is -0.0142; in [14], -0.052; in assay [15] it was 0.0471; in [16] it was -0.0372; in assay [17], -0.0386; in assay [18] it was -0.0291. Moreover, the Bliss excess in assay [19] is 0.007; in assay [20], -0.0662.
Regarding `Cn1cnc2c(F)c(Nc3ccc(Br)cc3Cl)c(C(=O)NOCCO)cc21` [Selumetinib] + C=CCn1c(=O)c2cnc(Nc3ccc(N4CCN(C)CC4)cc3)nc2n1-c1cccc(C(C)(C)O)n1 [AZD1775] (first compound max 10 µM, partner max 1 µM), the Bliss excess in assay [1] was -0.0124; in assay [2] it was -0.0131; in assay [3], -0.052; in assay [4], -0.0888; in [5], -0.0321; in [6] it was -0.125. Also, the Bliss excess was 0.025 in assay [7]; -0.0694 in assay [8]; -0.0284 in assay [9]; 0.0095 in assay [10]; -0.0115 in [11]; -0.0522 in assay [12]. Also, the Bliss excess in [13] was 0.0076; in assay [14], -0.0485; in assay [15] it was -0.0441; in assay [16], -0.0886; in assay [17], -0.0183; in assay [18] it was 0.0147. The Bliss excess in assay [19] is -0.0356; in [20], 0.0141.
For `Cn1cnc2c(F)c(Nc3ccc(Br)cc3Cl)c(C(=O)NOCCO)cc21` [Selumetinib] + CC(C)n1c(=O)n(C)c2cnc3cc(F)c(-c4ccc(OCCCN5CCCCC5)nc4)cc3c21 [AZD1390] (first compound max 10 µM, 7x7, partner max 0.3 µM), the Bliss excess in [1] was -0.0153; in assay [2] it was 0.0284; in assay [3], -0.0424; in assay [4], -0.0444; in assay [5], -0.0639; in assay [6] it was -0.0693. Further, the Bliss excess in assay [7] is 0.0413; in assay [8] it was -0.0392; in assay [9], -0.004; in assay [10], -0.0289; in assay [11], -0.0563; in [12], -0.0574. The Bliss excess was 0.0186 in assay [13]; -0.0427 in assay [14]; -0.0469 in assay [15]; -0.0262 in assay [16]; -0.0352 in assay [17]; -0.0022 in [18]. Also, the Bliss excess in assay [19] was 0.007; in [20], -0.0038.
On to `Cn1cnc2c(F)c(Nc3ccc(Br)cc3Cl)c(C(=O)NOCCO)cc21` [Selumetinib] + CCN(CCO)CCCOc1ccc2c(Nc3cc(CC(=O)Nc4cccc(F)c4)[nH]n3)ncnc2c1 [AZD2811] (first compound max 10 µM, 7x7, partner max 1 µM), for which the Bliss excess in assay [1] is 0.0243; in [2], 0.0086; in assay [3] it was -0.0614; in assay [4], -0.038; in [5], -0.0501; in [6], -0.027. The Bliss excess is 0.0288 in assay [7]; -0.011 in [8]; -0.026 in [9]; -0.0744 in [10]; -0.0303 in [11]; -0.0512 in assay [12]. For the same compound, the Bliss excess is -0.0471 in [13]; -0.0767 in assay [14]; -0.0069 in assay [15]; -0.0359 in assay [16]; -0.0003 in assay [17]; -0.0324 in [18]. Also, the Bliss excess is -0.0937 in [19] and 0.0447 in [20].
On to `Cn1cnc2c(F)c(Nc3ccc(Br)cc3Cl)c(C(=O)NOCCO)cc21` [Selumetinib] + C[C@@H]1COCCN1C2=NC(=NC(=C2)C3(CC3)[S@](=N)(=O)C)C4=C5C=CNC5=NC=C4 [AZD6738] (first compound max 10 µM, 7x7, partner max 10 µM), for which the Bliss excess in [1] is -0.0263; in [2], -0.041; in assay [3], -0.0657; in assay [4], -0.0084; in assay [5], -0.0193; in assay [6] it was -0.0382. Moreover, the Bliss excess in assay [7] is 0.152; in assay [8] it was -0.0257; in [9], 0.0102; in assay [10], -0.0011; in assay [11] it was 0.0078; in assay [12], -0.0347. Moreover, the Bliss excess is -0.0289 in assay [13]; -0.0651 in assay [14]; 0.0036 in assay [15]; -0.0871 in [16]; 0.0642 in assay [17]; -0.0258 in assay [18]. Besides, the values for the Bliss excess in assay [19] and in [20] were 0.0613 and 0.0421, respectively.
As to `CC(=O)Nc1cccc(-n2c(=O)n(C3CC3)c(=O)c3c(Nc4ccc(I)cc4F)n(C)c(=O)c(C)c32)c1` [Trametinib] + Cc1nc(-c2cn3c(n2)-c2ccc(-c4cnn(C(C)(C)C(N)=O)c4)cc2OCC3)n(C(C)C)n1 [Taselisib] (first compound max 1 µM, 7x7, partner max 10 µM), the Bliss excess in [1] was 0.165; in assay [2], 0.0881; in assay [3], 0.101; in assay [4], 0.0474; in assay [5], 0.0665; in [6], 0.0152. The Bliss excess in assay [7] is 0.0909; in [8], 0.109; in [9], 0.213; in [10], -0.0286; in assay [11], 0.19; in assay [12] it was 0.159. Besides, the Bliss excess in assay [13] was 0.129; in assay [14], 0.021; in [15], 0.0967; in assay [16], 0.0519; in assay [17], 0.13; in assay [18], 0.063. For the same compound, the results for the Bliss excess in assay [19] and in assay [20] were 0.0821 and 0.107, respectively.
